Laboratory results as given in patent US9388181B2, “Substituted 1,2,3,4-tetrahydropyrido[3,4-E] pyrrolo[1,2-A]pyrimidines as kinase” (Allergan, Inc., priority 2014, dated 2016).

Assays:
VEGFR2 (KDR) = VEGFR2 (KDR) (Homo sapiens (Human), UniProt P35968); test: VEGFR2 Kinase Assay (biochemical KDR kinase assay, ELISA); details: purified cytoplasmic domain KDR protein, 2.7 μM ATP
Description: Biochemical KDR kinase assays were performed in 96 well microtiter plates that were coated overnight with 75 μg/well of poly-Glu-Tyr (4:1) in 10 mM Phosphate Buffered Saline (PBS), pH 7.4. The coated plates were washed with 2 mls per well PBS+0.05% Tween-20 (PBS-T), blocked by incubation with PBS containing 1% BSA, then washed with 2 mls per well PBS-T prior to starting the reaction. Reactions were carried out in 100 μL reaction volumes containing 2.7 μM ATP in kinase buffer (50 mM Hepes buffer pH 7.4, 20 mM MgCl2, 0.1 mM MnCl2 and 0.2 mM Na3VO4). Test compounds were reconstituted in 100% DMSO and added to the reaction to give a final DMSO concentration of 5%. Reactions were initiated by the addition 20 ul per well of kinase buffer containing 200-300 ng purified cytoplasmic domain KDR protein (BPS Bioscience, San Diego, Calif.). Following a 15 minute incubation at 30° C., the reactions were washed 2 mls per well PBS-T. 100 μl of a monoclonal anti-phosphotyrosine antibody-peroxidase conjugate diluted 1:10,000 in PBS-T was added to the wells for 30 minutes. Following a 2 mis per well wash with PBS-Tween-20, 100 μl of O-Phenylenediamine Dihydrochloride in phosphate-citrate buffer, containing urea hydrogen peroxide, was added to the wells for 7-10 minutes as a colorimetric substrate for the peroxidase. The reaction was terminated by the addition of 100 μl of 2.5N H2SO4 to each well and read using a microplate ELISA reader set at 492 nm. IC50 values for compound inhibition were calculated directly from graphs of optical density (arbitrary units) versus compound concentration following subtraction of blank values.

VEGFR2 = VEGFR2 (Homo sapiens (Human), UniProt P35968); test: VEGFR2 Cellular Assay (FLIPR, VEGF induced intracellular calcium in HUVEC); assay type: cell-based; details: VEGF165 stimulation (10 ng/mL)
Description: VEGFR2 Cellular Assay Automated FLIPR (Fluorometric Imaging Plate Reader) technology was used to screen for inhibitors of VEGF induced increases in intracellular calcium levels in fluorescent dye loaded endothelial cells. HUVEC (human umbilical vein endothelial cells) (Clonetics) were seeded in 384-well fibronectin coated black-walled plates overnight @ 37° C./5% CO2. Cells were loaded with calcium indicator Fluo-4 for 45 minutes at 37° C. Cells were washed 2 times (Elx405, Biotek Instruments) to remove extracellular dye. For screening, cells were pre-incubated with test agents for 30 minutes, at a single concentration (10 uM) or at concentrations ranging from 0.0001 to 10.0 uM followed by VEGF165 stimulation (10 ng/mL). Changes in fluorescence at 516 nm were measured simultaneously in all 384 wells using a cooled CCD camera. Data were generated by determining max-min fluorescence levels for unstimulated, stimulated, and drug treated samples. IC50 values for test compounds were calculated from inhibition of VEGF stimulated responses in the absence of inhibitor.

PDGFRβ [1] = target: T1, PDGFRβ (Homo sapiens (Human), UniProt P09619); test: PDGFRβ Kinase Assay (biochemical, ELISA); details: purified cytoplasmic domain PDGFR-b protein, 36 μM ATP
Description: Biochemical PDGFRβ kinase assays were performed in 96 well microtiter plates that were coated overnight with 75 μg of poly-Glu-Tyr (4:1) in 10 mM Phosphate Buffered Saline (PBS), pH 7.4. The coated plates were washed with 2 mls per well PBS+0.05% Tween-20 (PBS-T), blocked by incubation with PBS containing 1% BSA, then washed with 2 mls per well PBS-T prior to starting the reaction. Reactions were carried out in 100 μL reaction volumes containing 36 μM ATP in kinase buffer (50 mM Hepes buffer pH 7.4, 20 mM MgCl2, 0.1 mM MnCl2 and 0.2 mM Na3VO4). Test compounds were reconstituted in 100% DMSO and added to the reaction to give a final DMSO concentration of 5%. Reactions were initiated by the addition 20 ul per well of kinase buffer containing 200-300 ng purified cytoplasmic domain PDGFR-b protein (Millipore). Following a 60 minute incubation at 30° C., the reactions were washed 2 mls per well PBS-T. 100 μl of a monoclonal anti-phosphotyrosine antibody-peroxidase conjugate diluted 1:10,000 in PBS-T was added to the wells for 30 minutes. Following a 2 mis per well wash with PBS-Tween-20, 100 μl of 0-Phenylenediamine Dihydrochloride in phosphate-citrate buffer, containing urea hydrogen peroxide, was added to the wells for 7-10 minutes as a colorimetric substrate for the peroxidase. The reaction was terminated by the addition of 100 μl of 2.5N H2SO4 to each well and read using a microplate ELISA reader set at 492 nm. IC50 values for compound inhibition were calculated directly from graphs of optical density (arbitrary units) versus compound concentration following subtraction of blank values.
Target sequence in this assay (P09619 554-1106): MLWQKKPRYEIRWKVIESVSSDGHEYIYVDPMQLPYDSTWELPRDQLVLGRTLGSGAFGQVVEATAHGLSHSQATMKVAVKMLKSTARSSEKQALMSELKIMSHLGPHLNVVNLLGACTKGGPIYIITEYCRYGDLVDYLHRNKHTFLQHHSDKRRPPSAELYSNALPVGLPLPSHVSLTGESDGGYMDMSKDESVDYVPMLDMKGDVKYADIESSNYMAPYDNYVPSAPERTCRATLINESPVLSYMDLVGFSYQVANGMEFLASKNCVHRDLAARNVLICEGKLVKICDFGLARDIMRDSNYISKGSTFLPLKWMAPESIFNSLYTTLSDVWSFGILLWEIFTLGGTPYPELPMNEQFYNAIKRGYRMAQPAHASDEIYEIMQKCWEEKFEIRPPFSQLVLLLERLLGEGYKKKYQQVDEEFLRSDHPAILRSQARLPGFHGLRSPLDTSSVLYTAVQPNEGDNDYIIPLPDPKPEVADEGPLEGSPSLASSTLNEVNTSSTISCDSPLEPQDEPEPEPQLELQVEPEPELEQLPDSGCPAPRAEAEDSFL

PDGFRβ [2] = target: T1, PDGFRβ; test: PDGFRβ Cellular Assay (FLIPR, PDGF-induced intracellular calcium in NHDF-Ad); assay type: cell-based; details: PDGF-BB stimulation (30 ng/mL)
Description: NHDF-Ad (Normal Human Dermal Fibroblasts, Adult; Lonza) were seeded in 384-well fibronectin coated black-walled plates overnight @ 37° C./5% CO2. Cells were loaded with calcium indicator Fluo-4 for 45 minutes at 37° C. Cells were washed 2 times (Elx405, Biotek Instruments) to remove extracellular dye. For screening, cells were pre-incubated with test agents for 30 minutes, at a single concentration (10 uM) or at concentrations ranging from 0.0001 to 10.0 uM followed by PDGF-BB stimulation (30 ng/mL). Changes in fluorescence at 516 nm were measured simultaneously in all 384 wells using a cooled CCD camera. Data were generated by determining max-min fluorescence levels for unstimulated, stimulated, and drug treated samples. IC50 values for test compounds were calculated from % inhibition of PDGF-BB stimulated responses in the absence of inhibitor.
Target sequence in this assay (P09619 33-1106): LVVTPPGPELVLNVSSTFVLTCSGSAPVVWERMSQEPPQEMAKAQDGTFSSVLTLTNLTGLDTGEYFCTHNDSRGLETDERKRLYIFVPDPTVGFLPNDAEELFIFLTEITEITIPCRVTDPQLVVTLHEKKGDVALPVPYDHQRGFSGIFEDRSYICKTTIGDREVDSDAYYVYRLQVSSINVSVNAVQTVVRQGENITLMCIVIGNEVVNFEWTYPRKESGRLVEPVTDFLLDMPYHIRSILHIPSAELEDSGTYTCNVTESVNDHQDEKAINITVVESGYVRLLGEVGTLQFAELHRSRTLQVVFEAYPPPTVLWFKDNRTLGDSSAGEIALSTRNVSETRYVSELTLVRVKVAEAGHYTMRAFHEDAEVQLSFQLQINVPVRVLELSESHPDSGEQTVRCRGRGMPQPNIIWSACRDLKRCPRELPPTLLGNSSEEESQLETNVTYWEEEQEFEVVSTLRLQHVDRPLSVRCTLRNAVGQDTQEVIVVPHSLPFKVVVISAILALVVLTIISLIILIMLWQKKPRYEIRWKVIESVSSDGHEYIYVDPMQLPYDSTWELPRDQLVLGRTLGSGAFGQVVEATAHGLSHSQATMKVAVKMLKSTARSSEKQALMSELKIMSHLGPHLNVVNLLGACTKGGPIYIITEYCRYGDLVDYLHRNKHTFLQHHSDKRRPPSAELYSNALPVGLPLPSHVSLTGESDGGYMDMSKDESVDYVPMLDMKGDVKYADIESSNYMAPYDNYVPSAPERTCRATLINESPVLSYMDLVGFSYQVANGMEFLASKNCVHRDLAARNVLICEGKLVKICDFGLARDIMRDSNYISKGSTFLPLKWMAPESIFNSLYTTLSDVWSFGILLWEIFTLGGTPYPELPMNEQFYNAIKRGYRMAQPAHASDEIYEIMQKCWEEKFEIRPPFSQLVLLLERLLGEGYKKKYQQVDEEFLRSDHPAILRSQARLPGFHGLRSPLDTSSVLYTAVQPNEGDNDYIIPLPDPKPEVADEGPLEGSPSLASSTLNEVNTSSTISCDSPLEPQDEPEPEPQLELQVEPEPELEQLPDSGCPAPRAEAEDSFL

Chain of VEGFR2 (KDR) (P35968 786-1356): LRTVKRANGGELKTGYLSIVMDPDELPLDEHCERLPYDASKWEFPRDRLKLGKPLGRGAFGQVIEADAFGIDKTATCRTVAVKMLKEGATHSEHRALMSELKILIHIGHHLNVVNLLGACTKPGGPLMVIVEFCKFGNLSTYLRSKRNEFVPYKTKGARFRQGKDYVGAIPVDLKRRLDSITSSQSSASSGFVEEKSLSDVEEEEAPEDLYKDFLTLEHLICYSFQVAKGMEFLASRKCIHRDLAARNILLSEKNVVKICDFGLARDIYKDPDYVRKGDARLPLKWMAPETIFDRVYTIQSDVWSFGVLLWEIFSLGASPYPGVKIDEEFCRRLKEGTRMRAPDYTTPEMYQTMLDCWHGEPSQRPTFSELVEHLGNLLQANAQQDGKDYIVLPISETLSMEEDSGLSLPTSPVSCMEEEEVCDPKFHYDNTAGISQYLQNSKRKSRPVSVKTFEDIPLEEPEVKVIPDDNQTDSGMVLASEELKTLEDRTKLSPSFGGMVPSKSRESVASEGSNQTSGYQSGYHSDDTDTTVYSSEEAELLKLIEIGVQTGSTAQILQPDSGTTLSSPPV
Chain of VEGFR2 (P35968 20-1356): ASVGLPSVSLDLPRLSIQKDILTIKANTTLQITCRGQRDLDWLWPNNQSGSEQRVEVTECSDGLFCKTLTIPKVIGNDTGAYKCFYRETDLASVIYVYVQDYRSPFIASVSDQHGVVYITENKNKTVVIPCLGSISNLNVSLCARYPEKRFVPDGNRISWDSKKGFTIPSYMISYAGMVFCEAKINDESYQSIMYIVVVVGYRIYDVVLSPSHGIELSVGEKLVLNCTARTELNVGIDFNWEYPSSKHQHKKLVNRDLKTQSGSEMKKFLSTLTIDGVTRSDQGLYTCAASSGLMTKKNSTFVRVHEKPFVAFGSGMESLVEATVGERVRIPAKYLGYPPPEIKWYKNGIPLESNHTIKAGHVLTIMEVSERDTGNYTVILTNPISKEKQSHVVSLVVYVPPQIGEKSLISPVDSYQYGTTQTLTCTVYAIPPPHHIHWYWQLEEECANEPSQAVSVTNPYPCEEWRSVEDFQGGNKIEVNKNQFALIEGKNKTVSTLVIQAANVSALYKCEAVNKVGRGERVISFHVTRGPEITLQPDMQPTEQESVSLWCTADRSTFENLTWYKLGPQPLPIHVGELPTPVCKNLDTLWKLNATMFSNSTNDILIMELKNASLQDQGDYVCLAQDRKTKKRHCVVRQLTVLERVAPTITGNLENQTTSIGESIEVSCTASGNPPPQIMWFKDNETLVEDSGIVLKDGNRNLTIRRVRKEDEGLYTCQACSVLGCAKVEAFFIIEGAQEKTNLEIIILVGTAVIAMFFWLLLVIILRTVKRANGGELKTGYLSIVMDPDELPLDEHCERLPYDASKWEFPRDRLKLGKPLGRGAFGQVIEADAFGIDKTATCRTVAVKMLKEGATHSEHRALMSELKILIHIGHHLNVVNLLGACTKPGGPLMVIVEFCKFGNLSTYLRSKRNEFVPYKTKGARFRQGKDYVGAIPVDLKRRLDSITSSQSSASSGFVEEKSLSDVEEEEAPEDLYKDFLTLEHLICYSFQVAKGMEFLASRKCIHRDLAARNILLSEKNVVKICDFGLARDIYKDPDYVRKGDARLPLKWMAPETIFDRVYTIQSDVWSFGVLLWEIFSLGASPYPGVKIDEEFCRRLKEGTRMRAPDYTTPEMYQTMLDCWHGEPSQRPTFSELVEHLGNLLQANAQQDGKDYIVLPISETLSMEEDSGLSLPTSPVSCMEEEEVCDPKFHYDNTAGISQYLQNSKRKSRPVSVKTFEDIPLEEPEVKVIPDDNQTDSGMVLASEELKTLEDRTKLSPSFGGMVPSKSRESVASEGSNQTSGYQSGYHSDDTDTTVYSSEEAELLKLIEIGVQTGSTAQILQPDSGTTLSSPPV

Row | IC50 (VEGFR2 (KDR)) [nM] | IC50 (VEGFR2) [nM] | IC50 (PDGFRβ [1]) [nM] | IC50 (PDGFRβ [2]) [nM] | Compound
1 | 8 | 26 | 20 | – | CC(C)c1cccc(NC(=O)c2cccc(N3CCc4c(cnc5ccnn45)C3)c2)c1 [Example 3, 3-(8,9-dihydropyrazolo[1,5-a]pyrido[3,4-e]pyrimidin-7(6H)-yl)-N-(3-isopropylphenyl)benzamide]
2 | 6 | 70 | 27 | 192 | O=C(Nc1cccc(C(F)(F)F)c1)c1cccc(N2CCc3c(cnc4ccnn34)C2)c1 [Example 4, 3-(8,9-dihydropyrazolo[1,5-a]pyrido[3,4-e]pyrimidin-7(6H)-yl)-N-[3-(trifluoromethyl)phenyl] benzamide]
3 | > 10000 | – | – | – | CC(C)c1cccc(NC(=O)c2cccc(N3Cc4cnc5ccnn5c4C3)c2)c1 [Example 7, 3-(6,8-dihydro-7H-pyrazolo[1,5-a]pyrrolo[3,4-e]pyrimidin-7-yl)-N-(3-isopropylphenyl)benzamide]

Further lines, the compound ahead of its results:

Row | Compound | IC50 (VEGFR2 (KDR)) [nM] | IC50 (VEGFR2) [nM] | IC50 (PDGFRβ [1]) [nM] | IC50 (PDGFRβ [2]) [nM]
4 | CC(C)(C)OC(=O)Nc1cccc(N2CCc3c(cnc4ccnn34)C2)c1 [Example 8, tert-Butyl (3-(8,9-dihydropyrazolo[1,5-a]pyrido[3,4-e]pyrimidin-7(6H)-yl)phenyl)carbamate] | > 10000 | – | – | –
5 | O=C(Nc1cccc(N2CCc3c(cnc4ccnn34)C2)c1)c1ccccc1 [Example 10, N-[3-(8,9-dihydropyrazolo[1,5-a]pyrido[3,4-e]pyrimidin-7(6H)-yl)phenyl]benzamide] | 101 | – | 202 | –
6 | O=C(Nc1cccc(N2CCc3c(cnc4ccnn34)C2)c1)c1cccc(C(F)(F)F)c1 [Example 11, N-[3-(8,9-dihydropyrazolo[1,5-a]pyrido[3,4-e]pyrimidin-7(6H)-yl)phenyl]-3-(trifluoromethyl)benzamid] | 6 | – | 21 | –
7 | Cc1cccc(NC(=O)Nc2cccc(N3CCc4c(cnc5ccnn45)C3)c2)c1 [Example 12, 1-[3-(8,9-dihydropyrazolo[1,5-a]pyrido[3,4-e]pyrimidin-7(6H)-yl)phenyl]-3-(3-methylphenyl)urea] | 27 | – | 32 | –
